Reference: patent publication US20250017915A1, “METHOD OF TREATING CANCER ASSOCIATED WITH RAS MUTATION” (The Board of Trustees of the University of Illinois, priority 2021, published 2025)

How the values were obtained:
Panc1 cells [1] = test: RNA sequencing and gene set enrichment analysis; type: cell-based, human; conditions: Panc1, 1 μM, 24 hours, RNA sequencing
Protocol: After 24 hours RNA was extracted using the RNeasy Plus Mini Kit (Qiagen, Hilden, Germany) per the manufacturer's instructions. Quality control, sequencing, and data analysis were performed by Novogene.

BRD4 and EP300/CBP = test: Immunoprecipitation of BRD4 and EP300/CBP, Panc1; type: cell-based, human; conditions: Panc1, 1 μM
Protocol: For immunoprecipitation, cell lysates were collected using IP buffer (25 mM Tris-HCl pH 7.5, 150 mM NaCl, 1 mM EDTA, 0.1% NP-40 and 5% glycerol) with a protease and phosphatase inhibitory cocktail (Cell Signaling), and cell extracts were incubated overnight with the respective antibodies followed by incubation with protein A or G agarose beads for 4 h at 4° C. After washing 5-7 times with lysis buffer, immunocomplexes were resolved using SDS-PAGE and visualized by western blot. All antibodies were compared with isotype specific IgG controls to affirm specificity. All experiments were performed in triplicate unless otherwise specified.
(§1) Using these same lysates, we also evaluated the association between BRD4 and EP300/CBP by immunoprecipitation.

Panc1 cells [2] = test: Cell viability, MTT assay; type: cell-based, human; conditions: Panc1, increasing concentrations, with or without 1 μM SGC-CBP30, 48 hours
Protocol: (§2) For cell growth assays, a fixed number of serum starved tumor cells were seeded into each well of a 24 well plate to reach 10% confluence, the subsequent percent confluence evaluated every 4 hours until the control group reached 100% confluence. For cell viability assays, 2,000-4,000 cells were seeded into each well of a 96-well plate in serum free DMEM. After 16 hours, media/drug was added and cells cultured for 72 hours. At this time, we added 20 ul of a 5 mg/ml 3-(4,5-Dimethyl-2-thiazolyl)-2,5-diphenyl-2H-tetrazolium bromide (MTT) solution to each well […]. After two hours, media was aspirated and crystals dissolved in DMSO and 570 nm absorbance determined by plate reader.
After 48 hours, we examined changes in cell viability via MTT assay.

Panc1 cells [3] = test: Cell growth assay (percent confluence); type: cell-based, human; conditions: Panc1, 1 μM each drug, until DMSO-treated cells reached 100% confluence
Protocol: as §2

Panc1 cells [4] = test: Western blot, Panc1; type: cell-based, human
Protocol: Cell or tissue lysates were lysed in RIPA buffer (Cell Signaling) followed by sonication. Equal amounts of protein (15-50 μg) were mixed with loading dye, boiled for 8 min, separated on a 4-20% denaturing SDS-PAGE gel and transferred to a PVDF membrane. The membrane was blocked in 5% milk/TBS/0.1% Tween for one hour and incubated with antibodies against pRB, pMEK1, MEK1, pERK1/2, ERK1/2, (Cell Signaling, Danvers, MA), H3K27ac (Active Motif, Carlsbad, CA), KRAS (Novus Bio, Saint Charles, MO), BRD4, EP300 (abcam, Cambridge, MA), or GAPDH (Santa Cruz Biotech, Santa Cruz, CA). The membrane was washed with TBS-0.1% Tween and then incubated with HRP conjugated secondary antibody (Cell Signaling) at room temperature for one hour and rewashed. Protein bands were visualized by an enhanced chemiluminescence method (Thermo Fischer, Waltham, MA) and resolved digitally per the manufacturer's specifications.
as §1

[5] = system: Pdx1-Cre×LSL-Kras^G12D×LSL-TP53^R172H+/− (KPC) mice; test: KPC mouse model of invasive PDAC, survival and endpoint tissue analysis; type: in vivo; conditions: XP-524 5 mg/kg daily IP and/or anti-PD-1 200 μg
Excerpt: (§3) Nongenic B6 (Wild Type), P48-Cre×LSL-Kras^G12D (KC), Pdx1-Cre×LSL-Kras^G12D×LSL-TP53^R172H+/− (KPC), and Pdx1-Cre×LSL-Kras^G12D×LSL-TP53^R172H+/+ (KPPC) mice were generated as described previously (24). […] Mice were euthanized at 6 months of age and tissues collected for analysis. […] KPC mice were sacrificed when moribund or showing clear signs of health decline e.g. fur loss, weight loss, or lethargy, or for non-survival studies at the fixed endpoint shown in the number of days after enrollment. For studies involving KPPC mice, animals were enrolled either when developing a 0.5 cm, palpable tumor or at 4 weeks of age. […] For euthanasia, animals were deeply anesthetized with isoflurane until unresponsive to toe tap and/or agonal breathing was observed. Thoracotomy served as the primary method of euthanasia and exsanguination the secondary method. For all mouse studies, mice were age matched within 2 weeks and males and females randomized at a 50:50 ratio.
Using these mice, we first conducted an early intervention study in which mice were allowed to develop overt PDAC for a minimum of 15 weeks, at which point 100% of mice in our colony develop focal PDAC. At this time, mice were then randomized at a 50:50 male to female ratio into one of two treatment groups (N=7/group). […]

[6] = system: Pdx1-Cre×LSL-Kras^G12D×LSL-TP53^R172H+/+ (KPPC) mice; test: KPPC mouse model of extremely aggressive PDAC, late intervention; type: in vivo; conditions: 5 mg/kg daily IP
Excerpt: as §3
We next conducted a late intervention study using the Pdx1-Cre×LSL-Kras^G12D×LSL-TP53^R172H+/+ (KPPC) model of extremely aggressive PDAC. In our colony, KPPC mice have a median survival of 43 days (N=12) and develop extensive PDAC as early as two weeks of age. We, therefore, enrolled mice as described either when they developed a 0.5 cm tumor or at 4 weeks of age and placed them into one of two treatment groups (N=6/group).

Compound	KRAS signaling and cell cycle pathways (Panc1 cells [1])	co-precipitation of BRD4 and EP300/CBP (BRD4 and EP300/CBP)	cell viability (Panc1 cells [2])	cell growth (Panc1 cells [3])	histone acetylation (H3K27ac) (Panc1 cells [4])	median survival post-enrollment [5] [days]	median survival post-enrollment [6] [days]
Cc1sc2c(c1C)C(c1ccc(Cl)cc1)=N[C@@H](CC(=O)OC(C)(C)C)c1nnc(C)n1-2 [JQ-1]	modest suppression of KRAS and cell cycle pathways	modestly reduced co-precipitation of BRD4 and EP300/CBP	reduction in cell viability	modest growth suppression	compensatory increase in histone acetylation	–	–
COc1ccc(CCc2nc3cc(-c4c(C)noc4C)ccc3n2C[C@H](C)N2CCOCC2)cc1Cl [SGC-CBP30]	–	–	–	marginal effect on cell growth	–	–	–
CCS(=O)(=O)Nc1cc(-c2cn(C)c3c(=O)[nH]ccc23)cc2c1ccn2C(C)(c1ccccn1)c1ccccn1 [XP-524]	–	–	–	–	–	108	50
